Laboratory results: patent publication US4764521A, “Leukotriene antagonists and a method of use there as” (Eli Lilly and Company, priority 1986, dated 1988)
Values belong to the molecule of their own block, whether it stands above or below them.

Assays:
[1] = system: LTD4 evoked ileal contractions (guinea pig ileum); test: Inhibition of LTD4 evoked contractions in isolated ileum (single submaximal LTD4 response, five minute drug exposure); format: cell-based, Male, Hartley guinea pigs; conditions: Cavia porcellus, read-out: Percent inhibition of LTD4 evoked ileal contractions; for inhibition at 3 µM: Compound concentration 3 × 10^-6 M; for inhibition at 1 µM: Compound concentration 1 × 10^-6 M; for inhibition at 0.1 µM: Compound concentration 1 × 10^-7 M; for inhibition at 0.3 µM: Compound concentration 3 × 10^-7 M
Method: (§1) A section of terminal ileum was removed, the lumen cleaned, and the tissue divided into 2.5 cm. segments. The ilea were mounted in 10 ml. tissue baths containing Krebs-bicarbonate solution of the following composition in mmoles/ liter: KCl, 4.6; CaCl2 ·2H2 O, 1.2; KH2 PO4, 1.2; MgSO4 ·7H2 O, 1.2; NaCl, 118.2; NaHCO3, 24.8; and dextrose, 10.0. The bath fluid was maintained at 37° C. and aerated with 95 percent oxygen and 5 percent CO2. In addition, the buffer contained 1×10^- 6M atropine to reduce ileal spontaneous activity. Isometric measurements were made with a Grass FTO3C force-displacement transducer and recorded on a Grass polygraph as change in grams of force. A passive force of 0.5 g. was applied to the tissues. After an appropriate equilibration period, single submaximal control responses to pure LTD4 were obtained. Following a five minute exposure of the ileum to an experimental drug, the control concentration of LTD4 was added to the tissue bath. The response of the ileum to LTD4 in the presence of the drug was compared to the response in the absence of the drug. For some of the drugs in this series a more detailed analysis of LTD4 antagonism was made. In these experiments, cumulative concentration-response curves were obtained to LTD4 in guinea pig ileum and trachea. This was followed by a 30 minute incubation with various concentrations of the experimental drug. The concentration response curve to LTD4 was then repeated in the presence of the antagonist. Only one concentration of antagonist was used on a single tissue. KB values were calculated by the method of Furchgott [Ann. N.Y. Acad. Sci., 139, 553 (1967)]using the following equation. [formula]

[2] = target: T1, LTD4 (guinea pig ileum and trachea) (Cavia porcellus, UniProt Q2NNR5); test: LTD4 antagonism, cumulative concentration-response curves to LTD4 (KB / pA2, Schild); format: cell-based; conditions: negative log of KB, 30 minute incubation
T1 construct: A section of terminal ileum was removed, the lumen cleaned, and the tissue divided into 2.5 cm. segments; from tissue; host or cells: isolated ileum and trachea of guinea pig (ileum: male Hartley, terminal ileum)
T1 sequence (Q2NNR5 1-340): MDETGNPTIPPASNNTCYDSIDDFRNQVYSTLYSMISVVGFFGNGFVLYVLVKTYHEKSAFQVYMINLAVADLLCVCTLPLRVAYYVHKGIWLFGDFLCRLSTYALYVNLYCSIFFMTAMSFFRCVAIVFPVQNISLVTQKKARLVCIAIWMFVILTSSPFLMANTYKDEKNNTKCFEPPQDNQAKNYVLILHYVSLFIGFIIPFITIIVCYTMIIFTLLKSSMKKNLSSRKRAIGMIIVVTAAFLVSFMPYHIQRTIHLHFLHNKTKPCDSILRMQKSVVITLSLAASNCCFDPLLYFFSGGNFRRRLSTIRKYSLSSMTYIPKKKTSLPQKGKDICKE
Method: as §1, with “Male, Hartley guinea pigs weighing 200-450 grams were killed by decapitation. A section” for “A section”
Dose ratio refers to the concentration of agonist required to elicit 50 percent of the maximal response (ED50) in the presence of the antagonist divided by the ED50 in the absence of the antagonist. Calculations were performed with the aid of a computer and a digital plotter.

Compound: CCCc1c(OCCCCCCC(=O)O)ccc(Cl)c1Cl [Example 12, 7-(2-Propyl-3,4-dichlorophenoxy)heptanoic acid]
inhibition at 3 µM [1]: 31%

Compound: CCCCCCCCc1c(OCCCCCCc2nnn[nH]2)ccc(Cl)c1Cl [Example 6, 5-[6-(2-Octyl-3,4-dichlorophenoxy)hexyl]-tetrazole]
inhibition at 1 µM [1]: 53%
inhibition at 3 µM [1]: 59%

Compound: CCCc1c(OCCCSc2nn[nH]n2)ccc(Cl)c1Cl [Example 8, 5-[3-(2-Propyl1-3,4-dichlorophenoxy)propanethio]-tetrazole]
inhibition at 0.1 µM [1]: 59%
inhibition at 0.3 µM [1]: 79%

Kb ([2]; *estimated): 251 nM
Compound: CCCc1c(OCCCCCc2nnn[nH]2)ccc(Cl)c1Cl [Example 3, 5-[5-(2-Propyl-3,4-dichlorophenoxy)pentyl]-tetrazole]
inhibition at 1 µM [1]: 75%
inhibition at 3 µM [1]: 92%
inhibition at 0.3 µM [1]: 51%

Kb ([2]; *estimated): 3160 nM
Compound: CCCc1c(OCCCCc2nnn[nH]2)ccc(Cl)c1O [Example 11, 5-[4-(2-Propyl-3-hydroxy-4-chlorophenoxy)butyl]-tetrazole]
inhibition at 3 µM [1]: 20%

Compound: CCCCCCCCCCCCc1c(OCCCCCc2nnn[nH]2)ccc(Cl)c1Cl [Example 7, 5-[5-(2-Dodecyl-3,4-dichlorophenoxy)pentyl]tetrazole]
inhibition at 3 µM [1]: 16%

Compound: O=C(O)CCCCCOc1ccc(Cl)c(Cl)c1CCO [Example 10, 6-[2-(2-Hydroxyethyl)-3,4-dichlorophenoxy]hexanoic acid]
inhibition at 3 µM [1]: 22%

pA2 ([2]; *estimated): 7.0
Compound: CCCc1c(OCCCCCCc2nn[nH]n2)ccc(Cl)c1Cl [Example 4, 5-[6-(2-Propyl-3,4-dichlorophenoxy)hexyl]-tetrazole]
inhibition at 1 µM [1]: 84%
inhibition at 3 µM [1]: 96%

Kb ([2]; *estimated): 105 nM
Compound: CCCc1c(OCCCCc2nnn[nH]2)ccc(C(C)=O)c1Cl [Example 5, 5-[4-(2-Propyl-3-chloro-4-acetylphenoxy)butyl]-tetrazole]
inhibition at 0.1 µM [1]: 49%
inhibition at 0.3 µM [1]: 73%

Compound: CCCCCc1c(OCCCCCC(=O)O)ccc(Cl)c1Cl [Example 9, 6-(2-Pentyl-3,4-dichlorophenoxy)hexanoic acid]
inhibition at 1 µM [1]: 21%
inhibition at 3 µM [1]: 57%

Kb [2]: 100 nM
Compound: CCCc1c(OCCCCc2nnn[nH]2)ccc(Cl)c1Cl [Example 2, 5-[4-(2-Propyl-3,4-dichlorophenoxy)butyl]-tetrazole]
inhibition at 1 µM [1]: 94%
inhibition at 0.1 µM [1]: 56%
inhibition at 0.3 µM [1]: 70%

Compound: CCCc1c(OCCCCCC(=O)O)ccc(Cl)c1Cl [Example 1, 6-(2-Propyl-3,4-dichlorophenoxy)hexanoic acid]
inhibition at 1 µM [1]: 51%
inhibition at 3 µM [1]: 78%
